The structures appear in SMILES notation. Read-outs that look alike come from different tables or passages of the source.

From PMC7714403 (JCI Insight, 2020) come the findings set out here.

Experiment in all cases: KiNativ, MOLM13 live cells
Assay type in all cases: cell-based

Test [1] deals with PIK3CB (Homo sapiens, UniProt P42338). Conditions: MOLM-13; 100 nM, 2 hours; ATP; read-out: Inhibition vs DMSO. As to the method:
(§1) Samples were analyzed by KiNativ in situ kinase profiling by ActivX Biosciences.

Test [2] has as its target IKKa (Homo sapiens, UniProt O15111). The following applies: MOLM-13; 100 nM, 2 hours; Lys2; read-out: Inhibition vs DMSO. Here is the method:
as §1

In test [3] the target is PIK3C3 (Homo sapiens, UniProt Q8NEB9). Conditions: MOLM-13, 2 h, 100 nM, ATP, read-out: Inhibition vs DMSO. Here is the method:
as §1

Test [4] has as its target T1, RSK1 domain2 (Homo sapiens, UniProt Q15418).
T1 construct: RSK1 domain2
The following applies: MOLM-13; 100 nM, 2 hours; Lys2; read-out: Inhibition vs DMSO. Here is the method:
as §1

The target of test [5] is CDK7 (Homo sapiens, UniProt P50613). The following applies: MOLM-13; 100 nM, 2 hours; Lys2; read-out: Inhibition vs DMSO. Here is the method: as §1
Test [6] addresses FGR (Homo sapiens, UniProt P09769). The following applies: MOLM-13; 100 nM, 2 hours; Activation Loop; read-out: Inhibition vs DMSO. Here is the method: as §1
For test [7], the target named is FES (Homo sapiens, UniProt P07332). Conditions: MOLM-13; 100 nM, 2 hours; Lys1; read-out: Inhibition vs DMSO. As to the method: as §1
FES, sequence (P07332 whole entry): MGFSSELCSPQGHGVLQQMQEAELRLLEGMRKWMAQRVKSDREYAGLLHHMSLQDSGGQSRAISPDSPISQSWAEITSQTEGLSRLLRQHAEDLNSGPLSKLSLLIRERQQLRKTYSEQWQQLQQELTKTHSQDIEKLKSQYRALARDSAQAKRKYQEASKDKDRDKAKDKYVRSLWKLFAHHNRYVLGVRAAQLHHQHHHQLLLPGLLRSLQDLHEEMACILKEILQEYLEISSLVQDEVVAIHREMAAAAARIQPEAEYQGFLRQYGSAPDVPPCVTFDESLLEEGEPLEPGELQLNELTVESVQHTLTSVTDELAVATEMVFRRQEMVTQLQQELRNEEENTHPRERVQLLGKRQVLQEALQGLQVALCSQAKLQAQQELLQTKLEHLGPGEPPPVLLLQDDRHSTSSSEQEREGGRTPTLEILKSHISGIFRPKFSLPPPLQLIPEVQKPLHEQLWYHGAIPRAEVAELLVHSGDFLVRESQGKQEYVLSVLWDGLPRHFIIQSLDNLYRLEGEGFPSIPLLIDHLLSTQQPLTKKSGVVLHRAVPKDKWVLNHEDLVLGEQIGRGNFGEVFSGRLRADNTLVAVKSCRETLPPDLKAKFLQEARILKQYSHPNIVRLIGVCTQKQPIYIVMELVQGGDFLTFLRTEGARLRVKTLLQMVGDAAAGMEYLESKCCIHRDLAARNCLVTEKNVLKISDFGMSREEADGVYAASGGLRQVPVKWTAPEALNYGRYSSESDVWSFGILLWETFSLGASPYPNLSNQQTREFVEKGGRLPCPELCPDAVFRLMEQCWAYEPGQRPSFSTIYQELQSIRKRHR
The target in test [8] is p70S6K (Homo sapiens, UniProt P23443). The following applies: MOLM-13; 100 nM, 2 hours; Lys2; read-out: Inhibition vs DMSO. Here is the method: as §1
p70S6K, sequence (P23443 whole entry): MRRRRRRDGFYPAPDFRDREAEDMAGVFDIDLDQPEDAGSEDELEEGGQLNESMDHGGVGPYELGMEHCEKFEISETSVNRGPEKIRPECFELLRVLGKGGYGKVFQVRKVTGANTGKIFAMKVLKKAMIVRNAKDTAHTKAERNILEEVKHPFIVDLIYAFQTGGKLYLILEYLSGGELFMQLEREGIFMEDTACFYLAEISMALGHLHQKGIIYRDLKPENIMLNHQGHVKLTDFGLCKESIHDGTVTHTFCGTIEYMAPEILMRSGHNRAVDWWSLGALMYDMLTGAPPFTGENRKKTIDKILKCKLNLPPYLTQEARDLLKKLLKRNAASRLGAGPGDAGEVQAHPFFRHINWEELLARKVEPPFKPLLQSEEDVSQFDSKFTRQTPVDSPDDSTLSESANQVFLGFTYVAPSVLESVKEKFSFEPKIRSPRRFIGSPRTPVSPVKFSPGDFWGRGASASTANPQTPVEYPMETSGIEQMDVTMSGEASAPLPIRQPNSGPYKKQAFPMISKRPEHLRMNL
The target in test [9] is AurB (Homo sapiens, UniProt Q96GD4). The following applies: MOLM-13; 100 nM, 2 hours; Lys1; read-out: Inhibition vs DMSO. Here is the method: as §1
In test [10] the target is p38b (Homo sapiens, UniProt Q15759). Conditions: MOLM-13; 100 nM, 2 hours; Other; read-out: Inhibition vs DMSO. As to the method:
as §1

Test [11] has as its target MST2 (Homo sapiens, UniProt Q13188). The following applies: MOLM-13; 100 nM, 2 hours; Lys1; read-out: Inhibition vs DMSO. Here is the method:
as §1

In test [12] the target is T2, MASTL (Homo sapiens, UniProt Q96GX5).
T2 sequence (Q96GX5 1-879): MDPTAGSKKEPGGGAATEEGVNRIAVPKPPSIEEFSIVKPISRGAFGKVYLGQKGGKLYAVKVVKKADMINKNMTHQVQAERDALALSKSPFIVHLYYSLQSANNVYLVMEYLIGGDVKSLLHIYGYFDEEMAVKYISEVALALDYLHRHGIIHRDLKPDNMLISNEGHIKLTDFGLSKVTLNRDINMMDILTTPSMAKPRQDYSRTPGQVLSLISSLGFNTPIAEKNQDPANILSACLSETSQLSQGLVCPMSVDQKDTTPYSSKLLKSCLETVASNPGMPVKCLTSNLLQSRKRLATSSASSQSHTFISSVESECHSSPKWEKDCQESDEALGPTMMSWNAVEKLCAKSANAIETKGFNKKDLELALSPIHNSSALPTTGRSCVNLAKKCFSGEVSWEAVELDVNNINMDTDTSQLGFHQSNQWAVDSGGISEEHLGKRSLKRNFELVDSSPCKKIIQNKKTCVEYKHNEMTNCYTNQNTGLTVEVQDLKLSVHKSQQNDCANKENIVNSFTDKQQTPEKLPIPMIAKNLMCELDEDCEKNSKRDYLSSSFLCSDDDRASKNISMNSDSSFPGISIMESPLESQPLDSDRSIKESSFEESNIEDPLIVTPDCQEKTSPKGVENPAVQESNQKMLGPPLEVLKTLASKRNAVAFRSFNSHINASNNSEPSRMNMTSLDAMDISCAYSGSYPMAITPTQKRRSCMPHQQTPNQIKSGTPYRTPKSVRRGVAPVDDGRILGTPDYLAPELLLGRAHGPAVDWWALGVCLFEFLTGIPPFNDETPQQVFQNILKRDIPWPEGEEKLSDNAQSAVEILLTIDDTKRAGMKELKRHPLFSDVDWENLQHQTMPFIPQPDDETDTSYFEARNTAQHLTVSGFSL
Conditions: 100 nM, 2 hours. As to the method: as §1

The target in test [13] is YANK3 (Homo sapiens, UniProt Q86UX6). The following applies: MOLM-13; 100 nM, 2 hours; Lys2; read-out: Inhibition vs DMSO. Here is the method:
as §1

Test [14] deals with T3, STLK5 (Homo sapiens, UniProt Q7RTN6).
T3 sequence (Q7RTN6 1-431): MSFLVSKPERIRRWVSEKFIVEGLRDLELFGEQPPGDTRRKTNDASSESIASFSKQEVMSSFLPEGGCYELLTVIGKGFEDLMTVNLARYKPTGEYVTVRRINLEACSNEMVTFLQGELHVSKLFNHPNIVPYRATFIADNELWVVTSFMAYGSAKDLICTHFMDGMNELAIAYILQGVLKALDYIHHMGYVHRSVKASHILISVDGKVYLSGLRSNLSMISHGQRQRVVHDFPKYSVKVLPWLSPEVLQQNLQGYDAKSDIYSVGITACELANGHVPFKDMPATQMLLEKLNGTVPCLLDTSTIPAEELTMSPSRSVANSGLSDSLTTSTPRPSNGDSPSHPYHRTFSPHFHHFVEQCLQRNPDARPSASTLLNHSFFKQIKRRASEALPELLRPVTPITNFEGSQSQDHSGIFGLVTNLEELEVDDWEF
Conditions: MOLM-13, 2 h, 100 nM. Here is the method: as §1

PIK3C3, sequence (Q8NEB9 whole entry): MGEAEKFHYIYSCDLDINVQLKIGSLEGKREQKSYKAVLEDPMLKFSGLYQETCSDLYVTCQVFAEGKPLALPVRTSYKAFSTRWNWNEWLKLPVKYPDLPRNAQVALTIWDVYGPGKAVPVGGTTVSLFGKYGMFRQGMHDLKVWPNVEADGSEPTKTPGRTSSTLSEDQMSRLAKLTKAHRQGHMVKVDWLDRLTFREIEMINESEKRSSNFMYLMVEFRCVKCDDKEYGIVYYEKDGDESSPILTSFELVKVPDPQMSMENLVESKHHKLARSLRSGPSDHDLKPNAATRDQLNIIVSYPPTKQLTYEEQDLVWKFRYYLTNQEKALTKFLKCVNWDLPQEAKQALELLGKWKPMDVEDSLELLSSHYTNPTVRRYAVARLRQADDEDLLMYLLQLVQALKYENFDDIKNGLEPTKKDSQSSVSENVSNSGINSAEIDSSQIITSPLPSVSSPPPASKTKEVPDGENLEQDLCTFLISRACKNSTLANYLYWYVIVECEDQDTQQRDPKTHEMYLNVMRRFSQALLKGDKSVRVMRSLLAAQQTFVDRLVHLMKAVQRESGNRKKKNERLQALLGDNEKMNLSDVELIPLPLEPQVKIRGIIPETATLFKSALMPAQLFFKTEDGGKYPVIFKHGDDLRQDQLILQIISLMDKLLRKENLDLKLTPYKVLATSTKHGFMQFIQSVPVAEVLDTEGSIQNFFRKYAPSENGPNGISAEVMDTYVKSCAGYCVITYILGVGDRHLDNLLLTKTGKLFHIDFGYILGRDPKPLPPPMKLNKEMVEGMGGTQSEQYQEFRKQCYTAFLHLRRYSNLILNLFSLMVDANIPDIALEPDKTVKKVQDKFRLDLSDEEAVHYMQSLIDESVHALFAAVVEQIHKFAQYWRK
p38b, sequence (Q15759 whole entry): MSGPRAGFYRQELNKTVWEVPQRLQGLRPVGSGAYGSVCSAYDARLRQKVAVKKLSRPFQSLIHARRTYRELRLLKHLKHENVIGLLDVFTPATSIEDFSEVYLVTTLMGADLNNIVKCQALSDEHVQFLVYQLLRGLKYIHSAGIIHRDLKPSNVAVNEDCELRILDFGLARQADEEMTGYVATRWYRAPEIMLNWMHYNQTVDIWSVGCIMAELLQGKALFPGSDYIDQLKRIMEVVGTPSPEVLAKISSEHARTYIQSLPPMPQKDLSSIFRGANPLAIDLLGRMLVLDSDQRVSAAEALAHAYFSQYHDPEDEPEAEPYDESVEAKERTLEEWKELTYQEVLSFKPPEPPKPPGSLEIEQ
PIK3CB, sequence (P42338 whole entry): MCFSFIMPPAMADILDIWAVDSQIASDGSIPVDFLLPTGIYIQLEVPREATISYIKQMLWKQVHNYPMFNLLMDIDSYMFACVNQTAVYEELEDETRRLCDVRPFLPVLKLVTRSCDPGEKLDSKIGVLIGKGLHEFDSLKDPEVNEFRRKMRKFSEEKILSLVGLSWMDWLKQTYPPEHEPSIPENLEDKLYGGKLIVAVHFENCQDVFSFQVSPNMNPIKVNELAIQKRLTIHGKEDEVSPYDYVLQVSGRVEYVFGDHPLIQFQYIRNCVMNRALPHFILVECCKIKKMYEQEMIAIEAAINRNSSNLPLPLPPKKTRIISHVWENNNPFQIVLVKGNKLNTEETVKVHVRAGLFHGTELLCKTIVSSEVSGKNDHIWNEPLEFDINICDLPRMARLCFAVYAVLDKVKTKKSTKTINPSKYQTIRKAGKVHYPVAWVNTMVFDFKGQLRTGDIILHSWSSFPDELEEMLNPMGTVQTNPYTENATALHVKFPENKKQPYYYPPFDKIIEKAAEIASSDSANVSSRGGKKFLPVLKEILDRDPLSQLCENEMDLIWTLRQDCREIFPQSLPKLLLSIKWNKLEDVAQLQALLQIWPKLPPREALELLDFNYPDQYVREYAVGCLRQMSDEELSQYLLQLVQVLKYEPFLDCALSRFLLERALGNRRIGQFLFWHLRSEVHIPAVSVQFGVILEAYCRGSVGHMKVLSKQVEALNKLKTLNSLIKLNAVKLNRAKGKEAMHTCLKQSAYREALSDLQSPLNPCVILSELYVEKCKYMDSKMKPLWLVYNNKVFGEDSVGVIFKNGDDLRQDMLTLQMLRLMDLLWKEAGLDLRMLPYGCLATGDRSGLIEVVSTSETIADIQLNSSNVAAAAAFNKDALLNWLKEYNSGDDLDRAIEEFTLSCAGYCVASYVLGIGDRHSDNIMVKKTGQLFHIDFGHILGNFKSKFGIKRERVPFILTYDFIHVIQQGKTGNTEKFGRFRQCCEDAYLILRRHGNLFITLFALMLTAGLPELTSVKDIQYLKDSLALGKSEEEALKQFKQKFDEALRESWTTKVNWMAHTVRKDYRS
PIK3CB, sequence (P27986 whole entry partner): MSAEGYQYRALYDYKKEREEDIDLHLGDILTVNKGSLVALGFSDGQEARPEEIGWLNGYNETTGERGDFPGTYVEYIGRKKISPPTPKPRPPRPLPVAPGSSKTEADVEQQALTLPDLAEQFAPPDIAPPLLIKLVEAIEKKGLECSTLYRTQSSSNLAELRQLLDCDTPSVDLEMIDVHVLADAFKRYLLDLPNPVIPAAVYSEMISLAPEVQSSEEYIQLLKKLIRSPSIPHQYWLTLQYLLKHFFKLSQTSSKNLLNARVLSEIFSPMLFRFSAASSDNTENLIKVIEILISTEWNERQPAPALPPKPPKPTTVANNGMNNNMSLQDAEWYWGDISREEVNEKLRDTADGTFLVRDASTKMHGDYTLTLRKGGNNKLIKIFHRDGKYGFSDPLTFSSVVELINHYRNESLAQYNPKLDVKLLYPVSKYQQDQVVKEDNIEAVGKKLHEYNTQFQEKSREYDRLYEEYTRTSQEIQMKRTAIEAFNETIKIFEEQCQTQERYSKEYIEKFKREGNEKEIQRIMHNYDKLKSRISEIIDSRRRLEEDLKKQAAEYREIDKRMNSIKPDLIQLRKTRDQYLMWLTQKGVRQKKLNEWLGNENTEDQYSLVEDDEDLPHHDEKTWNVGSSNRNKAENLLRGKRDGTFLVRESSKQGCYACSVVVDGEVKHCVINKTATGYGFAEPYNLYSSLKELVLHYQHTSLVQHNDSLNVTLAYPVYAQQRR
YANK3, sequence (Q86UX6 whole entry): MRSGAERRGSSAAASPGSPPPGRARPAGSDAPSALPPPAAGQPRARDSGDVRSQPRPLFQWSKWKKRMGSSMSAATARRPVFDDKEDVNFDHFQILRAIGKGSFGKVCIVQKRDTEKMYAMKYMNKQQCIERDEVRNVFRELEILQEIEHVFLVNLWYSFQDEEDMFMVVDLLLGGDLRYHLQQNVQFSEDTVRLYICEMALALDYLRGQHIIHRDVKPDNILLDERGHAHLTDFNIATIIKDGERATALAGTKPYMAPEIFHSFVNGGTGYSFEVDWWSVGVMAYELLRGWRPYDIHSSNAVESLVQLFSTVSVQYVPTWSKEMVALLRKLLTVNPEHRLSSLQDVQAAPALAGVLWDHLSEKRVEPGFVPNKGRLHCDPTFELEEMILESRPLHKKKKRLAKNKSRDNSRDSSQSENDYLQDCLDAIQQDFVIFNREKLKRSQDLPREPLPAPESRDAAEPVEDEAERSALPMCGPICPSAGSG

Consider `CN1CCN(Cc2ccc(Nc3ncc(Cl)c(Nc4ccccc4S(=O)(=O)N(C)C)n3)cc2)CC1` [TP-0903], for which the inhibition (as a rule, the change of the read-out against control, counted positive when it falls) at 0.1 µM in [1] was -0.9%; in [2] it was 2.9%; in test [3] (TEDGGKYPVIFKHGDDLR), -23.9%; in test [3] (TEDGGKYPVIFKHGDDLRQDQLILQIISLMDK), 2.6%; in test [4] it was -19.8%; in [5], 86.1%. Further, the inhibition at 0.1 µM in test [6] was -35.3%; in [7], 1%; in test [8], -32.8%; in [9] it was 60.1%; in test [10], -5%; in test [11], 7.5%. Besides, the inhibition at 0.1 µM was -4.7% in [13]; 4.2% in test [14] (Activation Loop, read-out: Inhibition vs DMSO); -19% in [14] (Lys2, read-out: Inhibition vs DMSO). Besides, the results for the “Inhibition vs DMSO” value in test [12] (ATP Loop) and in test [12] (Lys1) were 10.4% and -9.8%, respectively.
